The subject of assay [1] is NPC1-mediated cholesterol export. The conditions noted are these: cited from earlier work.
The next assay concerns T1, wild-type human NPC1.
T1 construct: expressed in transfected cells; host or cells: HEK-293S GnTI- cells (ATCC, CRL-3022), PEI transfection
The assay can be described thus: Cross-linking of P-X to NPC1 in intact HEK-293S GnTI- cells overexpressing NPC1. Particulars: for inhibition of P-X cross-linking to WT NPC1 in intact cells: 0.3 μM P-X and 3 μM competitor, 1 h at 37 °C. The format is cell-based. From the text:
pNPC1 encoding wild-type human NPC1 (amino acids 1–1278) followed sequentially by three tandem copies of the Flag epitope tag ([…]) was constructed into pcDNA3.1. Expression is achieved with the cytomegalovirus (CMV) promoter. Point mutations were introduced into the coding region of pNPC1 by site-directed mutagenesis using the QuikChange II XL Site-Directed Mutagenesis Kit (Agilent Technologies, Santa Clara, CA) and primers which are indicated in Supplementary Table 2. The coding region of each plasmid was sequenced to ensure integrity of the construct.
For cross-linking of P-X to NPC1 and mutants in intact cells, the mammalian HEK-293S GnTI^- cells (ATCC, CRL-3022) overexpressing NPC1 and mutants were set up in 500 mL of freestyle medium with 2% FCS at a density of 2 × 10^6 cells per ml. The cells were transfected with 0.5 mg of the indicated plasmid using PEI (Polysciences) as the transfection agent. After 48 h, cell culture was aliquoted to 10 cm dishes. Each dish received a direct addition of DMSO (final concentration, 0.2%) containing 0.3 μM P-X and 3 μM of various competitor compounds as described in the figure legends. After incubation for 1 h at 37 °C in the dark and without a change of media, the cells were irradiated for 10 min at room temperature under 306-nm UV light (Atlanta Light Bulb Co.) in a UV Stratalinker 2400 apparatus (Stratagene). Cells were subjected to centrifugation at 4000 g for 5 min. The pellet was washed once with PBS and then solubilized with 1 mL of buffer containing 50 mM Hepes pH 7.5, 150 mM NaCl, 1%(wt/vol) n-Dodecyl-β-D-maltopyranoside (DDM, Anatrace). Each solubilized lysate was incubated at room temperature for 1 h, and clarified by centrifugation at 15000 g for 1 min. The supernatant was then transferred to a fresh tube and incubated with anti-FLAG M2 magnetic beads for 1 h. After which the beads were applied to a magnet, washed three times with 1 mL of wash buffer containing 50 mM Hepes pH 7.5, 150 mM NaCl, 0.02% (wt/vol) DDM, and eluted with 100 μL of wash buffer containing 15 μg of 3x FLAG peptide. The purified protein was then tagged with Alexa Fluor 532 using click chemistry as described above. An aliquot of each sample was subjected to 8% SDS/PAGE, and fluorescent-labeled proteins were visualized by in-gel fluorescence as described above. After scanning the gel, the proteins were transferred to nitrocellulose and blotted with mouse monoclonal anti-Flag.

The subject of a further assay is T2, human NPC1.
T2 construct: Strep-tag; made in house; host or cells: HEK-293S GnTI- cells (baculovirus-mediated transduction)
The conditions noted are these: NPC1 reconstituted in lipid nanodiscs; cited from earlier work.

The subject of assay [2] is NPC1 mutants (W381E, L613E, Y628S, I685S, and Y1225E). Briefly: Cross-linking of P-X to NPC1 binding-site mutants in intact HEK293S cells. Format: cell-based, human. The conditions noted are these: 0.3 μM P-X. The source says: The I-Br binds to a hydrophobic cavity that is generated by the SSD, the MLD and the CTD in the center of NPC1 (Fig. 3d). Residues in the N-terminal loop and C-terminal helices of the MLD and the CTD, as well as TMs 3, 4, 5, and 13 contribute to the cavity that accommodates I-Br (Figs. 3d, 4a, b). The terminal sec-butyl moiety of I-Br inserts into the cavity and is contacted by residues W381, I609, L613, I685, F1087, I1220, and Y1225 (Fig. 4a, b). […] To validate our structural observation, we have generated five NPC1 mutants (W381E, L613E, Y628S, I685S, and Y1225E) located in the binding site and individually transfected the mutant cDNAs into HEK293S cells.
pNPC1 encoding wild-type human NPC1 (amino acids 1–1278) followed sequentially by three tandem copies of the Flag epitope tag ([…]) was constructed into pcDNA3.1. Expression is achieved with the cytomegalovirus (CMV) promoter. […]
For cross-linking of P-X to NPC1 and mutants in intact cells, the mammalian HEK-293S GnTI^- cells (ATCC, CRL-3022) overexpressing NPC1 and mutants were set up in 500 mL of freestyle medium with 2% FCS at a density of 2 × 10^6 cells per ml. […] An aliquot of each sample was subjected to 8% SDS/PAGE, and fluorescent-labeled proteins were visualized by in-gel fluorescence as described above. […]

The values below come from PMC6952396, “Structural basis for itraconazole-mediated NPC1 inhibition” (Nature Communications, 2020).

Take `CCC(C)n1ncn(-c2ccc(N3CCN(c4ccc(OCC5COC(Cn6cncn6)(c6ccc(Cl)cc6Cl)O5)cc4)CC3)cc2)c1=O` (stereo not shown) [Itraconazole mixture, itraconazole]: the “inhibition of cholesterol export from lysosomes” value in assay [1] is given as “inhibit cholesterol export from lysosomes”. In addition, in the assay with wild-type human NPC1, the “inhibition of P-X cross-linking to WT NPC1 in intact cells” value was “inhibits this reaction”.

On to `CC(=O)N1CCN(c2ccc(OCC3COC(Cn4ccnc4)(c4ccc(Cl)cc4Cl)O3)cc2)CC1` (stereo not shown) [Ketoconazole, ketoconazole], for which the “inhibition of P-X cross-linking to WT NPC1 in intact cells” value in the assay on wild-type human NPC1 is “could not inhibit”; in the assay with wild-type human NPC1 (listed as ketoconazole), “does not”.

In the case of `C#CCOc1ccc(C(=O)c2ccc(C(=O)OC(C)C(CC)n3ncn(-c4ccc(N5CCN(c6ccc(OCC7COC(Cn8cncn8)(c8ccc(F)cc8F)O7)cc6)CC5)cc4)c3=O)cc2)cc1` (stereo not shown) [P-X], the “cross-linking of P-X to purified NPC1” value in the assay with human NPC1 was “cross-linked”. Also, the “cross-linking of P-X to NPC1 mutants in cells” value in assay [2] is on record as “not efficiently cross-linked”. Moreover, the “cross-linking of P-X to WT NPC1 in intact cells” value in the assay with wild-type human NPC1 (0.3 μM P-X) is on record as “can easily cross-link”.
